Reference: article PMC10364322, “Evaluation of chronic drug-induced electrophysiological and cytotoxic effects using human-induced pluripotent stem cell-derived cardiomyocytes (hiPSC-CMs)” (Frontiers in Pharmacology, 2023)
Where two headings read alike, the source gives them in different places.

Columns and labels:
[1] = system: hiPSC-CMs (iCell-Cardiomyocytes^2)
Method: (§1) Cells were seeded according to the instructions of the cell provider, in fibronectin-coated 48-well MEA plates (Axion Cytoview Plates, M768-tMEA-48B) at a density suited to form a monolayer (i.e., 50 K/well) and maintained in culture in a stage incubator (37°C, 5% CO2).
(§2) At least 4 h before the beginning of the baseline measurements, a full medium exchange was performed (to a final volume of 400 µL per well). Neat compounds were dissolved in 100% DMSO at a stock concentration 1000-fold the highest target concentration. […] Afterwards, these stock solutions were diluted with Maintenance medium (CDi), to 10-fold the intended concentration. The final DMSO concentration in test solutions and vehicle control was 0.1%.
(§3) Spontaneous electrical activity was recorded in hiPSC-CMs monolayers as field potentials using the Maestro Pro MEA instrument (Axion Biosystems, Atlanta, GA, United States), which allows the maintenance of accurate temperature and CO2 levels (37°C, 5% CO2). After the plate was placed in the Maestro Pro and allowed to equilibrate for about 10 min, baseline acquisition of field potential and impedance signals was initiated and lasted for 5 min each. […] As impedance measures resistance of an applied alternating current through the hiPSC-CMs monolayer, a reduction in the attachment of hiPSC-CMs to the bottom of the well due to cell death or changes in the monolayer morphology, causes a drop in the impedance signal.
The potential presence of various arrhythmic events was evaluated and noted during the data analysis.
(§4) After the acquisition of all timepoint measurements, raw data were loaded into the data analysis software Axion Cardiac Analysis Tool (V.3.2.3). […] A.csv file containing information on the FP parameters per well, per time point, was then generated and used as input to the in-house data management system (SPEcII v.3.4, Unlimit-IT, Geel, Belgium), where descriptive statistics were calculated. Summary values at different time points after compound addition are expressed as percent change from baseline and shown as mean ± standard deviation (SD).
(§5) The nonparametric Wilcoxon-Mann Whitney Test was used to compare the percent change from the baseline (Δ%) value between the group treated with the compound at a given concentration and the group treated with the DMSO at each matching time points. A two-sided test at 5% significance level was considered. […] To assess the physiological relevance of changes, a tolerance interval of DMSO experiments was calculated at each time point, for each parameter. […] TIs indicate an interval where, with a certain confidence level (1- α = 0.95), a specified proportion (p = 0.80) of percent change for DMSO data falls. The lower and upper limits based on the TI values were used as cut-offs for the interpretation of the changes. For the cytotoxicity assays, measurements of fluorescence (after background fluorescence subtraction) from wells treated with the compounds were normalized by the average value of vehicle experiments (DMSO 0.1%) to obtain a DMSO-corrected, delta/delta percent change. Experiments from each condition, as delta/delta percent, were averaged and expressed as mean ± SD. Statistical analysis was performed using a non-parametric test (Kruskal-Wallis) and each treatment condition was compared to the relative DMSO 0.1%. Differences were considered statistically significant when the p-value was smaller than 0.05.

[2] = system: hiPSC-CMs (iCell-Cardiomyocytes^2); assay: MEA impedance (cytotoxicity readout) in hiPSC-CMs
Method: as §1, §2, §3, §4, §5

## O=C(O)COCCN1CCN(C(c2ccccc2)c2ccc(Cl)cc2)CC1 (centres unmarked) [Cetirizine]
[1]; 0.1 µM, 2h
  BR (beating rate), % change from baseline: 2±1%
  FPD (field-potential duration), % change from baseline: 3.2±0.7%
  FPDc (field-potential duration corrected by beat-rate), % change from baseline: 4.1±0.9%
[1]; 0.1 µM, 24h
  BR (beating rate), % change from baseline: 2±2%
  FPD (field-potential duration), % change from baseline: 8.9±2.4%
  FPDc (field-potential duration corrected by beat-rate), % change from baseline: 9.7±1.6%
[1]; 0.1 µM, 48h
  BR (beating rate), % change from baseline: -1±3%
  FPD (field-potential duration), % change from baseline: 8.3±2.5%
  FPDc (field-potential duration corrected by beat-rate), % change from baseline: 8±2.9%
[1]; 0.1 µM, 72h
  BR (beating rate), % change from baseline: 0±2%
  FPD (field-potential duration), % change from baseline: 7.8±1.4%
  FPDc (field-potential duration corrected by beat-rate), % change from baseline: 7.6±1.5%
[1]; 0.1 µM, 96h
  BR (beating rate), % change from baseline: -5±2%
  FPD (field-potential duration), % change from baseline: 8.9±2.9%
  FPDc (field-potential duration corrected by beat-rate), % change from baseline: 7.1±3.5%
[1]; 0.3 µM, 2h
  BR (beating rate), % change from baseline: 2±3%
  FPD (field-potential duration), % change from baseline: 2.9±2.5%
  FPDc (field-potential duration corrected by beat-rate), % change from baseline: 3.8±2.3%
[1]; 0.3 µM, 24h
  BR (beating rate), % change from baseline: 2±2%
  FPD (field-potential duration), % change from baseline: 12.5±1.8%
  FPDc (field-potential duration corrected by beat-rate), % change from baseline: 13±1.9%
[1]; 0.3 µM, 48h
  BR (beating rate), % change from baseline: -4±3%
  FPD (field-potential duration), % change from baseline: 12.1±2.3%
  FPDc (field-potential duration corrected by beat-rate), % change from baseline: 10.4±2.2%
[1]; 0.3 µM, 72h
  BR (beating rate), % change from baseline: -4±1%
  FPD (field-potential duration), % change from baseline: 9.2±4.1%
  FPDc (field-potential duration corrected by beat-rate), % change from baseline: 7.7±3.7%
[1]; 0.3 µM, 96h
  BR (beating rate), % change from baseline: -6±2%
  FPD (field-potential duration), % change from baseline: 10.3±1.1%
  FPDc (field-potential duration corrected by beat-rate), % change from baseline: 8.2±1.1%
[1]; 1 µM, 2h
  BR (beating rate), % change from baseline: 3±2%
  FPD (field-potential duration), % change from baseline: 3.3±5.6%
  FPDc (field-potential duration corrected by beat-rate), % change from baseline: 4.5±5%
[1]; 1 µM, 24h
  BR (beating rate), % change from baseline: 1±4%
  FPD (field-potential duration), % change from baseline: 19.3±18.2%
  FPDc (field-potential duration corrected by beat-rate), % change from baseline: 19.6±16.4%
[1]; 1 µM, 48h
  BR (beating rate), % change from baseline: -4±4%
  FPD (field-potential duration), % change from baseline: 20.8±13.7%
  FPDc (field-potential duration corrected by beat-rate), % change from baseline: 19±15%
[1]; 1 µM, 72h
  BR (beating rate), % change from baseline: -6±2%
  FPD (field-potential duration), % change from baseline: 17.3±16.7%
  FPDc (field-potential duration corrected by beat-rate), % change from baseline: 15.4±17.1%
[1]; 1 µM, 96h
  BR (beating rate), % change from baseline: -6±5%
  FPD (field-potential duration), % change from baseline: 19±15.6%
  FPDc (field-potential duration corrected by beat-rate), % change from baseline: 16.5±16.6%
[1]; 3 µM, 72h
  BR (beating rate), % change from baseline: -5±2%
  FPD (field-potential duration), % change from baseline: 12.9±3.8%
  FPDc (field-potential duration corrected by beat-rate), % change from baseline: 11.2±3%
[1]; 3 µM, 96h
  BR (beating rate), % change from baseline: -5±5%
  FPD (field-potential duration), % change from baseline: 14.4±6.3%
  FPDc (field-potential duration corrected by beat-rate), % change from baseline: 12.1±5%
[1]; 3 µM, 2h
  BR (beating rate), % change from baseline: 3±2%
  FPD (field-potential duration), % change from baseline: 4.9±3.1%
  FPDc (field-potential duration corrected by beat-rate), % change from baseline: 6.1±3.3%
[1]; 3 µM, 24h
  BR (beating rate), % change from baseline: 1±4%
  FPD (field-potential duration), % change from baseline: 14.6±2.3%
  FPDc (field-potential duration corrected by beat-rate), % change from baseline: 15.2±2.8 %
[1]; 3 µM, 48h
  BR (beating rate), % change from baseline: -5±2%
  FPD (field-potential duration), % change from baseline: 14.5±3.8%
  FPDc (field-potential duration corrected by beat-rate), % change from baseline: 12.5±3%
[2]; 0.1 µM, 2h
  Imp (impedance), % change from baseline: -4±4%
[2]; 0.1 µM, 24h
  Imp (impedance), % change from baseline: -8±1%
[2]; 0.1 µM, 48h
  Imp (impedance), % change from baseline: -7±2%
[2]; 0.1 µM, 72h
  Imp (impedance), % change from baseline: -7±3%
[2]; 0.1 µM, 96h
  Imp (impedance), % change from baseline: -7±4%
[2]; 0.3 µM, 2h
  Imp (impedance), % change from baseline: -3±3%
[2]; 0.3 µM, 24h
  Imp (impedance), % change from baseline: -8±2%
[2]; 0.3 µM, 48h
  Imp (impedance), % change from baseline: -5±4%
[2]; 0.3 µM, 72h
  Imp (impedance), % change from baseline: -5±6%
[2]; 0.3 µM, 96h
  Imp (impedance), % change from baseline: -5±6%
[2]; 1 µM, 2h
  Imp (impedance), % change from baseline: -4±2%
[2]; 1 µM, 24h
  Imp (impedance), % change from baseline: -7±5%
[2]; 1 µM, 48h
  Imp (impedance), % change from baseline: -4±7%
[2]; 1 µM, 72h
  Imp (impedance), % change from baseline: -5±6%
[2]; 1 µM, 96h
  Imp (impedance), % change from baseline: -4±9%
[2]; 3 µM, 72h
  Imp (impedance), % change from baseline: -8±7%
[2]; 3 µM, 96h
  Imp (impedance), % change from baseline: -6±7%
[2]; 3 µM, 2h
  Imp (impedance), % change from baseline: -3±2%
[2]; 3 µM, 24h
  Imp (impedance), % change from baseline: -7±4%
[2]; 3 µM, 48h
  Imp (impedance), % change from baseline: -3±6%
